From patent publication US12371428B2 (Exelixis, Inc., priority 2019, dated 2025)

Columns and labels:
[1] = molecular target: Human KDR (residues 790-1356) (Homo sapiens (Human), UniProt P35968); assay: Human KDR kinase assay, HTRF KinEase (Example B-2); assay type: biochemical; conditions: protocol of Example B-2
In short: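 Ten compound concentrations (3% DMSO final) were pre-plated, then KDR (790-1356) with biotinylated peptide in Mg/Mn/DTT buffer was added; ATP at Km (4.0 μM) started a 40 min room-temperature reaction. Detection used Eu-TK antibody and SA-XL665 in EDTA buffer; activity normalized to DMSO and reference inhibitor, IC50 by logistic fit.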

[2] = molecular target: Human MER (residues 528-999) (Homo sapiens (Human), UniProt Q12866); assay: Human Mer kinase assay, HTRF KinEase (Example C-2); assay type: biochemical; conditions: protocol of Example C-2
In short: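 IC50 values from 10 concentrations via 4-parameter logistic fit of […], with DMSO as 100% and 1 μM reference compound as 0% activity. Reaction: MER kinase domain 528-999, 1 ng/well, 40 μM ATP (Km), biotin peptide, 5 mM MgCl2, 1 mM DTT, 3% DMSO, room temperature 60 min; HTRF streptavidin-XL665/Eu-antibody detection.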

[3] = molecular target: Human MET (residues 956-1390) (Homo sapiens (Human), UniProt P08581); assay: Human Met kinase assay, HTRF KinEase (Example D-2); assay type: biochemical; conditions: protocol of Example D-2; read-out: c-Met IC50
In short: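 IC50 values come from a 4-parameter logistic fit of the […] fluorescence ratio, set between DMSO (100%) and reference compound at 1 μM (0%). Reactions held MET 956-1390 at 0.1 ng/well, ATP at Km, biotinylated peptide, 5 mM MgCl2, 1 mM MnCl2, 1 mM DTT and 3% DMSO, and ran 40 min at room temperature before streptavidin-XL665/Eu-antibody detection.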

[4] = molecular target: KDR (phospho-KDR, VEGF165-stimulated HUVEC cells) (Homo sapiens (Human), UniProt P35968); assay: KDR autophosphorylation ELISA in HUVEC cells (Example G); assay type: cell-based; conditions: cellular activity; KDR autophosphorylation ELISA in HUVEC cells
In short: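 First, endothelial cells were cultured a day, then kept without serum for another day. Next came 1 h with serially diluted compound, a brief 5 min VEGF165 stimulus (100 ng/mL), rapid lysis, and ELISA detection of receptor phosphorylation relative to stimulated and non-stimulated controls.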

Chain of Human KDR (residues 790-1356) (P35968 790-1356): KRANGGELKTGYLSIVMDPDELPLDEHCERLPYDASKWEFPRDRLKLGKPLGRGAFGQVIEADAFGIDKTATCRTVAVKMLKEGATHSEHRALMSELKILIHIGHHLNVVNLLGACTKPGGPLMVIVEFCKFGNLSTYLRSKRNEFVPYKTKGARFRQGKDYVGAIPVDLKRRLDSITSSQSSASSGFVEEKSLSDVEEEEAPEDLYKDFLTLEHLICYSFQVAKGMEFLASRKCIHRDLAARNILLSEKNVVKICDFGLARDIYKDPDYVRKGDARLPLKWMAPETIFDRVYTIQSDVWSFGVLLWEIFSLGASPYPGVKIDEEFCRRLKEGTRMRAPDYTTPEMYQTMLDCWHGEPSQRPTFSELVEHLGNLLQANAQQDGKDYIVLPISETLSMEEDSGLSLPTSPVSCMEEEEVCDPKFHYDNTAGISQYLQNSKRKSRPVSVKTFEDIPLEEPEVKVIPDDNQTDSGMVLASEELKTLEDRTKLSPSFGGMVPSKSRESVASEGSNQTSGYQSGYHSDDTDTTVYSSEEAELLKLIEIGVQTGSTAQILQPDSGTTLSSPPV
Chain of KDR (phospho-KDR, VEGF165-stimulated HUVEC cells) (P35968 20-1356): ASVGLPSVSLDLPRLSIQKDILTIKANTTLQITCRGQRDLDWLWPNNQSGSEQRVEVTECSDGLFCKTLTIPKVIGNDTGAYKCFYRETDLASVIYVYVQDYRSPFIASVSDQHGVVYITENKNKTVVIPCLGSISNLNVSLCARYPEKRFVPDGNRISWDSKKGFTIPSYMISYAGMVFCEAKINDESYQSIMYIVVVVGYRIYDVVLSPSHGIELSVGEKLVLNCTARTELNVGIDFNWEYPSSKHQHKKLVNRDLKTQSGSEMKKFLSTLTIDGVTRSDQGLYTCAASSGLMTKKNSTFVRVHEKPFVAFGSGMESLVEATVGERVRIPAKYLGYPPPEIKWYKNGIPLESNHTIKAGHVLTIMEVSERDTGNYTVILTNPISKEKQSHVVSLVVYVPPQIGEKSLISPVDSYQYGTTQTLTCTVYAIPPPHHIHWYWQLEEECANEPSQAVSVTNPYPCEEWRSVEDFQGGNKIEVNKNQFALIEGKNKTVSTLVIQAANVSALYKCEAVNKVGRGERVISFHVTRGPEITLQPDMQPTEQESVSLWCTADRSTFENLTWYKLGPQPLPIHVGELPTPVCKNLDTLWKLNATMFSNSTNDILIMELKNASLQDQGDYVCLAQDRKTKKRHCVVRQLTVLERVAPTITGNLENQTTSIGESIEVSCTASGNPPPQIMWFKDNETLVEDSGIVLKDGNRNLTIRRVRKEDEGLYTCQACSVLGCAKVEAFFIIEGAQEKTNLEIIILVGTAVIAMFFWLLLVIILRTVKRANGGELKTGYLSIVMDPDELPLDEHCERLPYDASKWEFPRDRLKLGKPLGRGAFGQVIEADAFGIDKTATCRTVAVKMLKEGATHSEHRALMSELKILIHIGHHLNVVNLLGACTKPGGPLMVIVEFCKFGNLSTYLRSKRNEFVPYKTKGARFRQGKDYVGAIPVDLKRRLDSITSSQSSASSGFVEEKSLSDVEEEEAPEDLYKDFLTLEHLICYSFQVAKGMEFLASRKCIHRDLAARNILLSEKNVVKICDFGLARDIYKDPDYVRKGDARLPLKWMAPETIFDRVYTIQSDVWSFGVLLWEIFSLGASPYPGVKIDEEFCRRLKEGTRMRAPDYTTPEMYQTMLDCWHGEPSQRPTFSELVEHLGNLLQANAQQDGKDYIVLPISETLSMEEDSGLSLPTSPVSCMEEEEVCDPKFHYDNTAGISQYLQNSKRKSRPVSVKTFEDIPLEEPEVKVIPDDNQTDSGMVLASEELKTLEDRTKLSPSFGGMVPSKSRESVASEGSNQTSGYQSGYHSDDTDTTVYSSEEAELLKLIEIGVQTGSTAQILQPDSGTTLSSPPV
Chain of Human MET (residues 956-1390) (P08581 956-1390): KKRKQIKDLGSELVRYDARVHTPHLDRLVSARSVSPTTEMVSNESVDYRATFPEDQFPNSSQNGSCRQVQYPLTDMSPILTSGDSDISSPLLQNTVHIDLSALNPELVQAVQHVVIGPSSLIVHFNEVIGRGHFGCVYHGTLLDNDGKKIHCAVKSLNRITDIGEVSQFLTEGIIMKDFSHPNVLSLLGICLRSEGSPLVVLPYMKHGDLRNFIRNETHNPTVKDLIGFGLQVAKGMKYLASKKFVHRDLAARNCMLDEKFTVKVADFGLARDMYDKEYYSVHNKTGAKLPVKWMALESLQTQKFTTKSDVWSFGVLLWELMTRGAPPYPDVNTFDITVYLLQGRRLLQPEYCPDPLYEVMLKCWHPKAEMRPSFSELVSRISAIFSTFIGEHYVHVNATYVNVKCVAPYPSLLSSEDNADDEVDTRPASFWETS
Chain of Human MER (residues 528-999) (Q12866 528-999): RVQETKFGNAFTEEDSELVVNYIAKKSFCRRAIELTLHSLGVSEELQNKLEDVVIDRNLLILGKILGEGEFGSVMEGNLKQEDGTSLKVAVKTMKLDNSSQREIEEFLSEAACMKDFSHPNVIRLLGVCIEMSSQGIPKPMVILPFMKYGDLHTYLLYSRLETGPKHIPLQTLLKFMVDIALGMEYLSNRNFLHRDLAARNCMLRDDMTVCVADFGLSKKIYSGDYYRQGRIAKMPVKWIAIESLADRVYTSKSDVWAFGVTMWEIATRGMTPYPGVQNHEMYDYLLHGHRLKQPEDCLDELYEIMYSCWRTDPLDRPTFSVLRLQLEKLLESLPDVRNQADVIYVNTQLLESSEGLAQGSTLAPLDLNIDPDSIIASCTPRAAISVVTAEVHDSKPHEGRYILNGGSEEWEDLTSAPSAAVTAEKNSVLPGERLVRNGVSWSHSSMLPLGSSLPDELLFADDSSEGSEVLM

IC50 [1] [nM] | IC50 [2] [nM] | IC50 [3] [nM] | IC50 [4] [nM] | SMILES
< 100 | < 100 | < 100 | < 100 | Cc1ncc(C(=O)Nc2ccc(Oc3ccnc4cnccc34)cc2)c(O)c1-c1ccc(F)cc1 [Compound 643, 5-(4-fluorophenyl)-4-hydroxy-6-methyl-N-[4-(1,7-naphthyridin-4-yloxy)phenyl]pyridine-3-carboxamide]
100 to 300 | < 100 | < 100 | < 100 | COc1cc2c(Oc3ccc(NC(=O)c4cnc(C)c(-c5ccc(F)cc5)c4O)cc3)ccnc2cn1 [Compound 644, 5-(4-fluorophenyl)-4-hydroxy-N-[4-[(6-methoxy-1,7-naphthyridin-4-yl)oxy]phenyl]-6-methylpyridine-3-carboxamide]
< 100 | < 100 | < 100 | < 100 | Cc1cc2c(Oc3ccc(NC(=O)c4cnc(C)c(-c5ccc(F)cc5)c4O)cc3F)ccnc2cn1 [Compound 645, N-[3-fluoro-4-[(6-methyl-1,7-naphthyridin-4-yl)oxy]phenyl]-5-(4-fluorophenyl)-4-hydroxy-6-methylpyridine-3-carboxamide]
